Data as given in US7022520B2, “Cell culture media for mammalian cells” (University of Pittsburgh, priority 1996, dated 2006).

Legend:
[1] = test system: proliferating hepatocytes; experiment: DNA synthesis in hepatocyte cultures (tritiated thymidine uptake); type: cell-based, rat; details: for DNA synthesis: 20 mM, 5-day period
Description: (§1) DNA synthesis was measured by the uptake of tritiated thymidine into trichloroacetic acid (TCA) precipitable material as described by Kost, D. P., et al. (1991), cited above. Collagen gels, where necessary, were digested with 2 mg of collagenase per ml of MEM medium used. Incubation was then carried out for 30 minutes at 37° C. The digested gels were treated with NaOH followed by TCA to precipitate DNA, RNA, and proteins as described by Kost, D. P., et al. (1991), cited above.
To assess whether differentiation to mature hepatocyte morphology required DNA synthesis, 20 mM hydroxurea was added to the HBM media. This has been shown (Michalopoulos, G. K., et al., Cancer Res. 38:1866 (1978), the disclosure of which is incorporated herein by reference) to abolish scheduled semiconservative DNA synthesis in hepatocytes by inhibiting ribonucleotide reductase. Hydroxyurea was added to cultures before the Madrigel overlay and maintained throughout the next 5-day period.
Hepatocytes maintained between two collagen gel layers retain their morphology and differentiation for prolonged time periods as described by Michalopoulos, G. K., et al., J. Cell. Physiol. 156:443 (1993), the disclosure of which is incorporated herein by reference. Hepatocytes maintained in collagen gel sandwiches in cultures with convential media containing HGF/SF undergo intense proliferation, form prominent projections, and eventually become organized in structures reminiscent of the hepatic plates. The behavior of hepatocytes maintained between two layers of collagen gel as previously described was examined, but in the presence of HBM supplemented with either HGF/SF or EGF as described above. […] These became prominent and encompassed most of the cells present in the cultures. Starting from approximately day 10 and by day 15 most of the cells in the culture were arranged in such ductular structures. Histologic sections are shown in FIG. 7B (light microscopy) and FIGS. 7C and 7D (electron microscopy). […]

hepatocytes = experiment: Hepatocytes between two type I collagen gel layers in HBM: ductular/acinar structures and proliferation; type: cell-based, rat; details: for phenotype of hepatocytes between two collagen gel layers: HBM supplemented with the growth factor, 15 day cultures
Description: (§2) Collagen gels were prepared as described by Michalopoulos, G. K., et al., Exp. Cell. Res. 94:70 (1975), the disclosure of which is incorporated herein by reference. Dry coating of plates with collagen and Matrigel was also performed as specified by the manufacturer. Matrigel gels were made by adding 50 μl of Matrigel solution into 0.5 ml of medium directly on the top of attached cells.
Hepatocytes maintained between two collagen gel layers retain their morphology and differentiation for prolonged time periods as described by Michalopoulos, G. K., et al., J. Cell. Physiol. 156:443 (1993), the disclosure of which is incorporated herein by reference. Hepatocytes maintained in collagen gel sandwiches in cultures with convential media containing HGF/SF undergo intense proliferation, form prominent projections, and eventually become organized in structures reminiscent of the hepatic plates. The behavior of hepatocytes maintained between two layers of collagen gel as previously described was examined, but in the presence of HBM supplemented with either HGF/SF or EGF as described above. […] These became prominent and encompassed most of the cells present in the cultures. Starting from approximately day 10 and by day 15 most of the cells in the culture were arranged in such ductular structures. Histologic sections are shown in FIG. 7B (light microscopy) and FIGS. 7C and 7D (electron microscopy). […] Some of the cells surrounding these structures were very attenuated and had light and electron microscopic appearance identical to bile duct epithelium. Others however are larger and resemble more closely the ductular hepatocytes described in previous studies of in vivo models. The proliferation of cells (data not shown) under either EGF or HGF/SF in the collagen gel sandwiches was much less (<25% at the highest peak) than that seen in the cultures on plastic coated with dry collagen. Most proliferation ceased by day 10 and the duct-like structures appeared after cell proliferation had ceased (days 10–15). […]

[2] = test system: proliferating hepatocytes; experiment: Matrigel overlay: reversion of proliferating hepatocytes to mature hepatocyte morphology; type: cell-based, rat; details: Matrigel overlay with 20 mM hydroxyurea
Description: To assess whether differentiation to mature hepatocyte morphology required DNA synthesis, 20 mM hydroxurea was added to the HBM media. […] Hydroxyurea was added to cultures before the Madrigel overlay and maintained throughout the next 5-day period.

rat hepatocytes [3] = experiment: Effect of matrix substrates on hepatocyte growth (total DNA per culture at day 15); type: cell-based; details: dry coating of plates; HBM with HGF/SF 40 ng/ml and EGF 20 ng/ml; FIG. 3
Description: as §2
Several matrix substrates promoted cell growth in this system. […] The cells were cultured as described above. […] Coating with type I collagen (Vitrogen commercial preparation) was the standard method used for the experiments unless otherwise specified. The effect of matrix gels in promoting specific phenotypic conversions in these cultures is further discussed below.

[4] = test system: cytochrome P450 IIB1 mRNA; experiment: Northern blot of cytochrome IIB1 mRNA induction; details: PB added at day 10 of culture, harvest at day 15; with or without Matrigel at day 8; FIG. 6E
Description: Extraction of Total RNA and mRNA from Cultures. Total RNA was extracted from unwashed cell cultures using 2.0 ml of RNAzol B (BioTec) per well and purified per the manufacturer's guidelines. RNA concentration and purity were determined by routine spectrophotometry. Size separation of 20 μg RNA per lane was completed on denaturing it agarose gels and transferred to nylon membranes (Amersham, Arlington Heights, Ill.) by the capillary method. After cross-linking under UV light, the membranes were hybridized overnight with specific cDNAs (as indicated in the figures) that had been labeled with [α-^32P]dCTP using an Amersham random primer kit. Membranes were subsequently washed under high stringency conditions and exposed to XAR film (Eastman Kodak, Rochester, N.Y.) for 1–3 days. Quantification of the RNA hybridization bands were performed by laser densitometry.
The effect of Phenobarbitol (PB) on the levels of cytochrome P450 IIB1 mRNA in the Matrigel-treated cultures was also measured as shown in FIG. 6E. Matrigel was added to the cultures at day 8. PB was added 2 days later (day 10 of culture). The cells were harvested 5 days after addition of PB (day 15 in culture).

rat hepatocytes [5] = experiment: Hepatocyte proliferation in HBM supplemented with growth factors (total DNA per culture, thymidine uptake, BRdU labeling); type: cell-based; details: FIG. 2; for cell proliferation, total amount of DNA per culture at day 15: growth factor added individually to HBM medium
From the text: Rat hepatocytes were isolated by an adaptation of the calcium two step collagenase perfusion technique as taught by Kost, D. P., et al, J. Cell. Physiol. 147:274 (1991), the disclosure of which is incorporated herein by reference. All such preparations were designed to obtain a population of pure hepatocytes. […] After isolation of hepatocytes, the cells were suspended in a media used for cell attachment to the culture plates. This media was MEM (GIBCO 12570) with NEAA (GIBCO 11140), insulin 5 mg/L, and gentamycin 5 μg/ml. Hepatocytes were plated on a single layer of collagen coating as described below and left to attach for 2 hours. Six-well cluster plates (9.8 square centimeters […]) from Corning were used. For experiments where hepatocytes were not going to be induced to proliferate, or where assessments of differentiated function were performed, the cells were plated at a density of 80,000 hepatocytes per square centimeter of surface area. For experiments intended to induce proliferation or genetic transduction with foreign DNA, cells were plated at an initial density of 1,000 or 10,000 hepatocytes per square centimeter of surface area. The plating medium was replaced with the invention HBM medium at 2 hours after the cells were plated and every 48 hours thereafter. Thymidine, growth factors, and other ingredients, were added at the time of medium change as required.
as §1
FIGS. 1A and 1B show the uptake of thymidine per μg DNA, as well as the BRdU nuclear labeling index at different days in culture in cells growing in the presence of HGF/SF and EGF (40, 20 ng/ml respectively) as described above. […] By day 15 the cultures were confluent and DNA synthesis slowed down.
The growth factors HGF/SF, EGF, TGFα, KGF (keratinocyte growth factor), SCF (stem cell factor), and aFGF (acidic fibroblast growth factor) were added individually to HBM medium. […] The total DNA per culture is shown as a function of the time in culture. […] The DNA per culture at day 15 was 12 times that at time 0, reflecting the increase in cell number. […] TGFα alone was more mitogenic than either HGF/SF or EGF alone.

## NC(=O)NO [Hydroxyurea]
[1]; cultures in the presence of Matrigel
  DNA synthesis: 6.27 % of control (without hydroxyurea)
[1]; proliferating cultures in the absence of Matrigel
  DNA synthesis: 3.93 % of the control (without hydroxyurea)
[1]; collagen gel sandwich cultures, data not shown
  DNA synthesis (inhibition down to): 5.1 % of control
hepatocytes; collagen gel sandwich, data not shown
  formation of the ductular structures under inhibition of DNA synthesis: did not affect the formation of the ductular structures
[2]
  conversion of the proliferating hepatocytes to mature hepatocyte morphology: entirely unaffected

## type I (bovine): bovine skin collagen type I, dry coating matrix substrate
Rat hepatocytes [3]
  promotion of cell growth, total DNA per culture at day 15: equally effective in promoting cell growth

## CCC1(c2ccccc2)C(=O)NC(=O)NC1=O [PB, Phenobarbitol]
[4]
  levels of cytochrome P450 IIB1 mRNA: induced cytochrome IIB1 mRNA only in the Matrigel-treated cultures

## EGF: epidermal growth factor
hepatocytes
  phenotype of hepatocytes between two collagen gel layers: underwent the typical phenotypic transitions
Rat hepatocytes [5]
  cell proliferation, total amount of DNA per culture at day 15: significant cell proliferation

## aFGF: acidic fibroblast growth factor
Rat hepatocytes [5]
  cell proliferation, total amount of DNA per culture at day 15: no proliferative effect

## fibronectin
Rat hepatocytes [3]
  promotion of cell growth, total DNA per culture at day 15: equally effective in promoting cell growth

## HGF/SF: Hepatocyte growth factor, also known as scatter factor
hepatocytes
  phenotype of hepatocytes between two collagen gel layers: multiple duct-shaped structures
Rat hepatocytes [5]
  cell proliferation, total amount of DNA per culture at day 15: significant cell proliferation

## TGFα: transforming growth factor a
Rat hepatocytes [5]; HBM medium, 15 days
  proliferative effect compared with the other mitogens: stronger proliferative effect than any of the other mitogens when added alone
Rat hepatocytes [5]
  cell proliferation, total amount of DNA per culture at day 15: significant cell proliferation

## SCF: stem cell factor
Rat hepatocytes [5]
  cell proliferation, total amount of DNA per culture at day 15: no proliferative effect

## laminin
Rat hepatocytes [3]
  promotion of cell growth, total DNA per culture at day 15: equally effective in promoting cell growth

B1: KGF: keratinocyte growth factor (protein, UniProt P21781 32-194, looked up)
Fibroblast growth factor 7: CNDMTPEQMATNVNCSSPERHTRSYDYMEGGDIRVRRLFCRTQWYLRIDKRGKVKGTQEMKNNYNIMEIRTVAVGIVAIKGVESEFYLAMNKEGKLYAKKECNEDCNFKELILENHYNTYASAKWTHNGGEMFVALNQKGIPVRGKKTKKEQKTAHFLPMAIT
Rat hepatocytes [5]
  cell proliferation, total amount of DNA per culture at day 15: no proliferative effect
